Source: US20240391931A1 (Bristol-Myers Squibb Company, priority 2021, published 2024)

Tests used:
HER2 WT = target: T1, HER2 WT (Homo sapiens, UniProt P04626); assay: Enzymatic assay HER2 WT (method a); assay type: biochemical; conditions: [HER2 WT]=12.5 nM, [ATP]=25 μM, [Peptide 22]=1 μM
T1 construct: purchased ProQinase, Freiburg, Germany ERBB2 0108-0000-1
How it was run: (§1)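 Initial rates over 0–3600 s, read as substrate-to-product conversion by capillary electrophoresis, were converted to percent inhibition and fitted with a variable-slope curve to give IC50. Conditions: EGFR WT 2 nM with 1 mM ATP; HER2 YVMA 5 nM or HER2 WT 12.5 nM, each with 25 μM ATP. All used 1 μM Peptide 22 in pH 7.5 HEPES/Mn/Mg buffer.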

HER2YVMA = HER2YVMA (Homo sapiens, UniProt P04626, INS775YVMA); assay: Enzymatic assay HER2YVMA (method b); assay type: biochemical; parameters: purchased Viva biotech, Shanghai, China custom purification; conditions: [HER2YVMA]=5 nM, [ATP]=25 μM, [Peptide 22]=1 μM
How it was run: as §1

Sequence of HER2YVMA (P04626 with tags, fused parts or gaps INS775YVMA): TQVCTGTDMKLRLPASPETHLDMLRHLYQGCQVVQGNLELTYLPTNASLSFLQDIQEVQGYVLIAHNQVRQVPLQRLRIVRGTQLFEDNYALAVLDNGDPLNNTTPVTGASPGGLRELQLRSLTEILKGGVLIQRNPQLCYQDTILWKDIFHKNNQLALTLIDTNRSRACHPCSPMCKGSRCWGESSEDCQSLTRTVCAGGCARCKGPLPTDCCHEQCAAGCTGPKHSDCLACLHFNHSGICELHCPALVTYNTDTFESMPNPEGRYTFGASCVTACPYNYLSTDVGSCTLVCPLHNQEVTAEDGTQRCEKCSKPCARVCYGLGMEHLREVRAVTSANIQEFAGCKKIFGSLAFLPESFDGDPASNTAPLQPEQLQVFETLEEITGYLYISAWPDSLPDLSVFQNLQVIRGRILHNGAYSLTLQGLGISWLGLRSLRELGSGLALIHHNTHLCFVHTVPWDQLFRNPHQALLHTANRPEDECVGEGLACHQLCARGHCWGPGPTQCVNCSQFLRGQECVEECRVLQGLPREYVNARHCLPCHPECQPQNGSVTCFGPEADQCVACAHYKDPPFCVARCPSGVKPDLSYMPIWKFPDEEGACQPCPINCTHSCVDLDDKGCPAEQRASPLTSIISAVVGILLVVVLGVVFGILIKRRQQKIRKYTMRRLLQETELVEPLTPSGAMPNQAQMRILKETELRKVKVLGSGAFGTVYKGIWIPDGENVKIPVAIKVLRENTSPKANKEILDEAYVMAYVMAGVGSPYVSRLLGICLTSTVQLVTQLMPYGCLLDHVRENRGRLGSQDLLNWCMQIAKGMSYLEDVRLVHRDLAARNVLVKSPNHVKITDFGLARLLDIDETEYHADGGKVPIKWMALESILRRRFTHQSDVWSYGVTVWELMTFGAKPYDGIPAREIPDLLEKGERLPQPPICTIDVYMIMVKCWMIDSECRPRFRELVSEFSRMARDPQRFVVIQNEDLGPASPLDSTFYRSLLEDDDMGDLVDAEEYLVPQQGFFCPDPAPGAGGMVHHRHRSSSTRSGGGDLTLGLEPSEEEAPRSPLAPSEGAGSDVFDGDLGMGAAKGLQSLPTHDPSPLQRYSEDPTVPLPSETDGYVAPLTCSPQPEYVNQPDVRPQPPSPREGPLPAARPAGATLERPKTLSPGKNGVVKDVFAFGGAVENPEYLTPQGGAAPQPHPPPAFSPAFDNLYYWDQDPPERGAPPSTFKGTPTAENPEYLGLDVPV
T1 sequence (P04626 23-1255): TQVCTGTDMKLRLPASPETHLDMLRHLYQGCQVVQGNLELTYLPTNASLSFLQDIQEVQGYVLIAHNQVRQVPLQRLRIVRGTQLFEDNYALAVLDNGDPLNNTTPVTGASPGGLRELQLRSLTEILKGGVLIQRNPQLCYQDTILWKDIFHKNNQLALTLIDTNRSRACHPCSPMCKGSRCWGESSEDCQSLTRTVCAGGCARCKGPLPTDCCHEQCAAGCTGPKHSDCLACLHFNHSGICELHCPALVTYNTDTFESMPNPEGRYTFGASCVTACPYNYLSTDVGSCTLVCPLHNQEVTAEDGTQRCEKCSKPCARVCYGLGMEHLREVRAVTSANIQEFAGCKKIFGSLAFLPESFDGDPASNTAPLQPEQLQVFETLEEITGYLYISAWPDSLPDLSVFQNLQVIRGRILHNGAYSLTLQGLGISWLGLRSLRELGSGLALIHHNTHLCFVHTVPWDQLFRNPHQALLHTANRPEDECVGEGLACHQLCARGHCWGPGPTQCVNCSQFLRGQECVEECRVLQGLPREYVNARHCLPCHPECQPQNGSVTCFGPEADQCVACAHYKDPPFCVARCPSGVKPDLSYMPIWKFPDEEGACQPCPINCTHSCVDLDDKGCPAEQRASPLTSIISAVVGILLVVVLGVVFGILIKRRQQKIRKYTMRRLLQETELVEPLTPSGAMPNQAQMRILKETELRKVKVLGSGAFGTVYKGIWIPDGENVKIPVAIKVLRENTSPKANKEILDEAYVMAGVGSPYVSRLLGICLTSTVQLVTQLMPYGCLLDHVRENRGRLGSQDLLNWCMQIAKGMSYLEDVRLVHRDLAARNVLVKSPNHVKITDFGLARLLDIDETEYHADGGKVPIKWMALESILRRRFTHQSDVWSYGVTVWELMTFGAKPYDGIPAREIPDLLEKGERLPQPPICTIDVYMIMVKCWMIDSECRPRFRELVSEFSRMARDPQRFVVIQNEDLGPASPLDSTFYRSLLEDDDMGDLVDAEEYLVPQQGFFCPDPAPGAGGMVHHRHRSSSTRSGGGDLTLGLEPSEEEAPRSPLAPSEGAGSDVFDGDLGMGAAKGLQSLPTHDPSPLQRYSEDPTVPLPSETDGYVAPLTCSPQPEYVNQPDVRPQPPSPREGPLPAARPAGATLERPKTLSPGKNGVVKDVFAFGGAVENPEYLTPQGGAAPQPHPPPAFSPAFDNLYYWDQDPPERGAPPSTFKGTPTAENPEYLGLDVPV

Row | Structure (SMILES) | IC50 (HER2 WT) | IC50 (HER2YVMA)
1 | Cc1ccc(Oc2ccc(Nc3ncnc4sc5c(c34)C(C)CN(C(=O)C=CCN(C)C)C5)cc2C)cn1 (single isomer, unassigned) [Compound 105] | < 100 nM | < 100 nM
2 | Cc1ccc(Oc2ccc(Nc3ncnc4sc5c(c34)C(C)CN(C(=O)C=CCN(C)C)C5)cc2C)cn1 (single isomer, unassigned) [Compound 106] | < 100 nM | < 100 nM
3 | Cc1cc(Nc2ncnc3sc4c(c23)CCN(C(=O)/C=C/CN(C)C)C4)ccc1Oc1ccc2ncnn2c1 [Compound 3, (E)-1-(4-((4-([1,2,4]triazolo[1,5-a]pyridin-6-yloxy)-3-methylphenyl)amino)-5,8-dihydropyrido[4′,3′:4,5]thieno[2,3-d]pyrimidin-7(6H)-yl)-4-(dimethylamino)but-2-en-1-one] | < 100 nM | 100 to 1000 nM
4 | C=CC(=O)N1CCc2c(sc3ncnc(Nc4ccc(Oc5ccc6ncnn6c5)c(Cl)c4)c23)C1 [Compound 4, 1-(4-((4-([1,2,4]triazolo[1,5-a]pyridin-6-yloxy)-3-chlorophenyl)amino)-5,8-dihydropyrido[4′,3′:4,5]thieno[2,3-d]pyrimidin-7(6H)-yl)prop-2-en-1-one] | < 100 nM | < 100 nM
5 | CN(C)C/C=C/C(=O)N1CCc2c(sc3ncnc(Nc4ccc(Oc5ccc6ncnn6c5)c(Cl)c4)c23)C1 [Compound 5, (E)-1-(4-((4-([1,2,4]triazolo[1,5-a]pyridin-6-yloxy)-3-chlorophenyl)amino)-5,8-dihydropyrido[4′,3′:4,5]thieno[2,3-d]pyrimidin-7(6H)-yl)-4-(dimethylamino)but-2-en-1-one] | < 100 nM | < 100 nM
6 | Cc1cc(Nc2ncnc3sc4c(c23)CCN(C(=O)/C=C/CN2CC3CCC(C3)C2)C4)ccc1Oc1ccc2ncnn2c1 [Compound 20] | < 100 nM | < 100 nM
7 | Cc1ncc(Oc2ccc(Nc3ncnc4sc5c(c34)CCN(C(=O)/C=C/CN(C)C)C5)cc2C)cn1 [Compound 21, (E)-4-(dimethylamino)-1-(4-((3-methyl-4-((2-methylpyrimidin-5-yl)oxy)phenyl)amino)-5,8-dihydropyrido[4′,3′:4,5]thieno[2,3-d]pyrimidin-7(6H)-yl)but-2-en-1-one] | 100 to 1000 nM | 100 to 1000 nM
8 | Cc1cc(Nc2ncnc3sc4c(c23)CCN(C(=O)/C=C/CN(C)C)C4)ccc1Oc1ccc2[nH]ncc2c1 [Compound 22, (E)-1-(4-((4-((1H-indazol-5-yl)oxy)-3-methylphenyl)amino)-5,8-dihydropyrido[4′,3′:4,5]thieno[2,3-d]pyrimidin-7(6H)-yl)-4-(dimethylamino)but-2-en-1-one] | < 100 nM | < 100 nM
9 | Cc1cc(Nc2ncnc3sc4c(c23)CCN(C(=O)/C=C/CN(C)C)C4)ccc1Oc1ccc2cn[nH]c2c1 [Compound 23, (E)-1-(4-((4-((1H-indazol-6-yl)oxy)-3-methylphenyl)amino)-5,8-dihydropyrido[4′,3′:4,5]thieno[2,3-d]pyrimidin-7(6H)-yl)-4-(dimethylamino)but-2-en-1-one] | < 100 nM | < 100 nM
10 | Cc1ccc(Oc2ccc(Nc3ncnc4sc5c(c34)CCN(C(=O)/C=C/CN3CC4CC3CO4)C5)cc2C)cn1 (centres unmarked) [Compound 26] | < 100 nM | < 100 nM
11 | Cc1ccc(Oc2ccc(Nc3ncnc4sc5c(c34)CCN(C(=O)/C=C/CN3CCCOCC3)C5)cc2C)cn1 [Compound 42] | < 100 nM | < 100 nM
12 | Cc1ccc(Oc2ccc(Nc3ncnc4sc5c(c34)CCN(C(=O)/C=C/CN3C4CCC3CC4)C5)cc2C)cn1 [Compound 44] | < 100 nM | < 100 nM
13 | CC(=O)N1CCN(C/C=C/C(=O)N2CCc3c(sc4ncnc(Nc5ccc(Oc6ccc(C)nc6)c(C)c5)c34)C2)CC1 [Compound 51] | < 100 nM | 100 to 1000 nM
14 | Cc1ccc(Oc2ccc(Nc3ncnc4sc5c(c34)CCN(C(=O)/C=C/CN3CC4(C3)CS(=O)(=O)C4)C5)cc2C)cn1 [Compound 57] | < 100 nM | < 100 nM
15 | Cc1ccc(Oc2ccc(Nc3ncnc4sc5c(c34)CCN(C(=O)/C=C/CN3CCN4C(=O)CCC4C3)C5)cc2C)cn1 (centres unmarked) [Compound 58] | 100 to 1000 nM | 100 to 1000 nM
16 | COCCN1CCN(C/C=C/C(=O)N2CCc3c(sc4ncnc(Nc5ccc(Oc6ccc(C)nc6)c(C)c5)c34)C2)CC1 [Compound 59] | < 100 nM | 100 to 1000 nM

Next, values leading:

Row | IC50 (HER2 WT) | IC50 (HER2YVMA) | Structure (SMILES)
17 | < 100 nM | < 100 nM | Cc1ccc(Oc2ccc(Nc3ncnc4sc5c(c34)CCN(C(=O)/C=C/CN(C)C(C)(C)C)C5)cc2C)cn1 [Compound 33]
18 | < 100 nM | < 100 nM | Cc1ccc(Oc2ccc(Nc3ncnc4sc5c(c34)CCN(C(=O)/C=C/CN3CC4C(CO)C4C3)C5)cc2C)cn1 (centres unmarked) [Compound 34]
19 | < 100 nM | < 100 nM | Cc1ccc(Oc2ccc(Nc3ncnc4sc5c(c34)CCN(C(=O)/C=C/CN(CCO)CCO)C5)cc2C)cn1 [Compound 37]
20 | < 100 nM | < 100 nM | Cc1ccc(Oc2ccc(Nc3ncnc4sc5c(c34)CCN(C(=O)/C=C/CNC3COC3)C5)cc2C)cn1 [Compound 38]
21 | < 100 nM | < 100 nM | CNC(=O)CNC/C=C/C(=O)N1CCc2c(sc3ncnc(Nc4ccc(Oc5ccc(C)nc5)c(C)c4)c23)C1 [Compound 39]
22 | < 100 nM | < 100 nM | Cc1ccc(Oc2ccc(Nc3ncnc4sc5c(c34)CCN(C(=O)/C=C/CNC3CC3)C5)cc2C)cn1 [Compound 40]
23 | < 100 nM | < 100 nM | Cc1ccc(Oc2ccc(Nc3ncnc4sc5c(c34)CCN(C(=O)/C=C/CN3CCCC3C(N)=O)C5)cc2C)cn1 (centres unmarked) [Compound 41]
24 | 100 to 1000 nM | 100 to 1000 nM | Cc1ccc(Oc2ccc(Nc3ncnc4sc5c(c34)CCN(C(=O)/C=C/CN3CC(O)CO3)C5)cc2C)cn1 (centres unmarked) [Compound 43]
25 | < 100 nM | < 100 nM | Cc1ccc(Oc2ccc(Nc3ncnc4sc5c(c34)CCN(C(=O)/C=C/CNCCS(C)(=O)=O)C5)cc2C)cn1 [Compound 45]
26 | 100 to 1000 nM | 100 to 1000 nM | CCN1CCN(C/C=C/C(=O)N2CCc3c(sc4ncnc(Nc5ccc(Oc6ccc(C)nc6)c(C)c5)c34)C2)CC1 [Compound 46]
27 | < 100 nM | < 100 nM | Cc1ccc(Oc2ccc(Nc3ncnc4sc5c(c34)CCN(C(=O)/C=C/CNC3CCOC3)C5)cc2C)cn1 (centres unmarked) [Compound 47]
28 | < 100 nM | < 100 nM | Cc1ccc(Oc2ccc(Nc3ncnc4sc5c(c34)CCN(C(=O)/C=C/CNCC3CN(C)CCO3)C5)cc2C)cn1 (centres unmarked) [Compound 48]
29 | < 100 nM | < 100 nM | Cc1ccc(Oc2ccc(Nc3ncnc4sc5c(c34)CCN(C(=O)/C=C/CNCc3cc(C)n[nH]3)C5)cc2C)cn1 [Compound 49]
30 | < 100 nM | < 100 nM | Cc1ccc(Oc2ccc(Nc3ncnc4sc5c(c34)CCN(C(=O)/C=C/CNCc3ccsc3)C5)cc2C)cn1 [Compound 52]
31 | < 100 nM | < 100 nM | Cc1ccc(Oc2ccc(Nc3ncnc4sc5c(c34)CCN(C(=O)/C=C/CN3CC(O)C3)C5)cc2C)cn1 [Compound 53]
32 | < 100 nM | < 100 nM | Cc1ccc(Oc2ccc(Nc3ncnc4sc5c(c34)CCN(C(=O)/C=C/CNC3CCC3)C5)cc2C)cn1 [Compound 54]
33 | < 100 nM | < 100 nM | Cc1ccc(Oc2ccc(Nc3ncnc4sc5c(c34)CCN(C(=O)/C=C/CN3CC=CCC3)C5)cc2C)cn1 [Compound 55]
34 | 100 to 1000 nM | 100 to 1000 nM | CON(C)C/C=C/C(=O)N1CCc2c(sc3ncnc(Nc4ccc(Oc5ccc(C)nc5)c(C)c4)c23)C1 [Compound 56]
